Source: patent US20210322508A1, “PEPTIDES AND COMPOSITIONS FOR TARGETED TREATMENT AND IMAGING” (SIGNABLOK, INC., priority 2018, published 2021)
Residues, ends and D or L forms follow the SMILES beside them.

Legend:
[1] = tested on: human non-small cell lung cancer H292 xenograft; assay: H292 xenograft mouse model; assay type: in vivo, mice; settings: vs vehicle
Text: PTX, paclitaxel. ****, P<0.0001 as compared with vehicle-treated animals.
PTX, paclitaxel. ****, p<0.0001 as compared with vehicle-treated animals.
Abbreviations: PTX, paclitaxel; PBS, phosphate-buffer saline.

[2] = tested on: J774A.1 macrophages; assay: In vitro macrophage endocytosis of fluorescent peptides with or without HDL; assay type: cell-based, mouse; settings: for receptors mediating in vitro macrophage endocytosis: pre-incubated with HDL, fucoidan, BLT-1, cytochalasin D; for in vitro macrophage endocytosis, effect of pre-incubation with HDL: rho B-labeled peptides, 1 mg/ml HDL
Protocol: The BALB/c murine macrophage cell line J774A.1 (ATCC TIB-67) were obtained from the American Type Culture Collection (ATCC, Manassas, Va.). The macrophage cells were cultured at 37° C. with 5% CO2 in Dulbecco's modified Eagle's medium (DMEM) (Cellgro, Mediatech Inc, Manassas, Va.) with 2 mM glutamine, 100 U/ml penicillin, 0.1 mg/ml streptomycin, and 10% fetal bovine serum (FBS) (Cellgro, Mediatech Inc, Manassas, Va.) and grown to approximately 90% of confluence in 6-well tissue culture plates (Corning, Tewksbury, Mass.). Cells were incubated for varied time periods from 4 to 24 h at 37° C. with fluorescently labeled peptides (pre-incubated with 1 mg/ml HDL) at a concentration of 4 μM rhodamine B (rho-B). After incubation, cells were washed twice with PBS and lysed using Promega passive lysis buffer (Promega, Madison, Wis.). The rho B fluorescence was measured in the lysates with a 540 nm excitation and a 590 nm emission filters using the Gemini EM fluorescence microplate reader (Molecular Devices, Sunnyvale, Calif.). The protein concentration in the lysates was determined using the Bradford reagent (Bio-Rad, Richmond, Calif.) and the SpectraMax 190 microplate reader (Molecular Devices, Sunnyvale, Calif.).
In one embodiment, after reaching target confluency, cells were incubated for 1 h in medium with or without fucoidan (400 μg/mL), BLT-1 (10 μM) or cytochalasin D (40 μM), Cells were subsequently incubated for 4 h and 22 h at 37° C. in medium containing 2 μM of rho B-labeled peptides G-KV21 and G-HV21 (as calculated for rho B) that were pre-incubated with 1 mg/ml HDL. After incubation, cells were washed twice with PBS and lysed using Promega passive lysis buffer. The rho B fluorescence and protein concentration were measured in the lysates as described above.

[3] = tested on: TNF-alpha, IL-1beta and IL-6; assay: LPS-induced endotoxemia: in vivo serum cytokine release; design: species or system mouse; settings: free peptides, at this dose; serum 90 min after 30 mg/kg LPS
Protocol: (§1) One hour later, mice received i.p. injection of 30 mg/kg LPS from E. coli 055:B5 (Sigma). In some experiments, all formulations were i.p. administered 1 and 3 h after LPS injection. The viability of mice was examined hourly. Body weights were measured daily. In all of the animal experiments, blood samples were collected via a sub-mandibular (cheek) bleed at 90 min after administration of LPS. Statistical analysis of survival curves was performed by the Kaplan-Meier test. Comparisons were made using two-tailed Student's t test. The production of cytokines in serum was measured by a standard sandwich cytokine ELISA procedure using TNF-alpha, IL-1beta and IL-6 ELISA kits (Pierce Biotechnology, Thermo Scientific, Rockford, Ill.) according to the instructions of the manufacturer. Statistical significances in cytokine analysis ELISA data were determined by two-tailed Student's t test.
(§2) Naïve, female C57BL/6 mice at 8 to 10 weeks of age (18 to 21 g) from the Jackson Laboratory were randomly grouped (10 mice per group) and i.p. injected with vehicle or the indicated doses of dexamethasone (DEX), GF9, G-TE21, G-HV21 and G-KV21. One hour later, mice received i.p. injection of 30 mg/kg LPS from E. coli 055:B5 (Sigma). […] Body weights were measured daily. […] Statistical significances in cytokine analysis ELISA data were determined by two-tailed Student's t test.

[4] = tested on: C57BL/6 mice with LPS-induced septic shock; assay: LPS-induced septic shock: survival; assay type: in vivo, mouse; settings: free peptides, at this dose; 30 mg/kg LPS i.p.
Protocol: as §1, §2

[5] = tested on: LPS-stimulated J774A.1 macrophages (TNF-alpha, IL-6, IL-1beta); assay: In vitro cytokine release by LPS-stimulated macrophages; assay type: cell-based, mouse; settings: 10 ng/ml after pre-incubation with HDL; LPS 1 μg/ml, 24 h
Protocol: (§3) The BALB/c murine macrophage cell line J774A.1 (ATCC TIB-67) were obtained from the American Type Culture Collection (ATCC, Manassas, Va.). Macrophages were cultured in 48-well plates (Corning, Cambridge, Mass.) for 24 h at 37° C. in the presence of LPS (1 μg/ml, Escherichia coli 055:B5, Sigma) in combination with 10 ng/ml peptides either pre-incubated or not with HDL. Cell-free supernatants were harvested and stored at −20° C. for later cytokine quantification. TNF-alpha, IL-6, and IL-1beta were assayed using commercial ELISA kits (Pierce Biotechnology, Thermo Scientific, Rockford, Ill.) according to the recommendations of the manufacturer. Results were represented as the mean±S.D. of three independent experiments. Statistical significances in in vitro macrophage uptake assay were determined by two-tailed Student's t test.
as §3, with “Macrophages were cultured in 48-well plates (Corning, Cambridge, Mass.) for 24 h at 37° C. in the presence of LPS (1 μg/ml, Escherichia coli 055:B5, Sigma) in combination with 10 ng/ml peptides either pre-incubated or not with HDL.” left out

[6] = tested on: LPS-challenged mice; assay: survival of LPS-challenged (septic shock) mice; assay type: in vivo; settings: vs vehicle
Text: FIG. 15B. **, P=0.001 to 0.01 as compared with vehicle-treated animals.

Structure (SMILES) | tumor growth [1] | receptors mediating in vitro macrophage endocytosis [2] | in vitro macrophage endocytosis, effect of pre-incubation with HDL [2] | LPS-stimulated cytokine production in vivo [3] | protection from LPS-induced septic shock / survival [4] | production of cytokines by LPS-stimulated macrophages [5] | survival of LPS-challenged mice [6]
CC(C)C[C@H](NC(=O)[C@H](Cc1ccccc1)NC(=O)CN)C(=O)N[C@@H](CO)C(=O)N[C@@H](CCCCN)C(=O)N[C@@H](CO)C(=O)N[C@@H](CC(C)C)C(=O)N[C@H](C(=O)N[C@@H](Cc1ccccc1)C(=O)N[C@@H](Cc1c[nH]c2ccccc12)C(=O)N[C@@H](CCC(N)=O)C(=O)N[C@@H](CCC(=O)O)C(=O)N[C@@H](CCC(=O)O)C(=O)N[C@@H](CC[S+](C)[O-])C(=O)N[C@@H](CCC(=O)O)C(=O)N[C@@H](CC(C)C)C(=O)N[C@@H](Cc1ccc(O)cc1)C(=O)N[C@@H](CCCNC(=N)N)C(=O)N[C@@H](CCC(N)=O)C(=O)N[C@@H](CCCCN)C(=O)N[C@H](C(=O)O)C(C)C)C(C)C (some centres unmarked) [G-KV21] (HELM PEPTIDE1{G.F.L.S.K.S.L.V.F.W.Q.E.E.[CS(=O)CC[C@H](N[*:1])C(=O)[*:2]].E.L.Y.R.Q.K.V}$$$$V2.0) | significantly inhibit the tumor growth | mediated with scavenger receptors (SR) A (SR-A) and BI (SR-B1) with SR-A being the predominant mediator | enhances in vitro macrophage endocytosis | inhibit LPS-stimulated cytokine production in vivo | protect mice from LPS-induced septic shock and prolongs survival of septic mice | inhibit production of cytokines by LPS-stimulated macrophages | significantly improve survival
CC(C)C[C@H](NC(=O)[C@H](Cc1ccccc1)NC(=O)CN)C(=O)N[C@@H](CO)C(=O)N[C@@H](CCCCN)C(=O)N[C@@H](CO)C(=O)N[C@@H](CC(C)C)C(=O)N[C@H](C(=O)N[C@@H](Cc1ccccc1)C(=O)NCC(=O)N[C@@H](CCC(=O)O)C(=O)N[C@@H](CCC(=O)O)C(=O)N[C@@H](CC[S+](C)[O-])C(=O)N[C@@H](CCCNC(=N)N)C(=O)N[C@@H](CC(=O)O)C(=O)N[C@@H](CCCNC(=N)N)C(=O)N[C@@H](C)C(=O)N[C@@H](CCCNC(=N)N)C(=O)N[C@@H](C)C(=O)N[C@@H](Cc1c[nH]cn1)C(=O)N[C@H](C(=O)O)C(C)C)C(C)C (some centres unmarked) [G-HV21] (HELM PEPTIDE1{G.F.L.S.K.S.L.V.F.G.E.E.[CS(=O)CC[C@H](N[*:1])C(=O)[*:2]].R.D.R.A.R.A.H.V}$$$$V2.0) | significantly inhibit the tumor growth | mediated with scavenger receptors (SR) A (SR-A) and BI (SR-B1) with SR-A being the predominant mediator | enhances in vitro macrophage endocytosis | inhibit LPS-stimulated cytokine production in vivo | protect mice from LPS-induced septic shock and prolongs survival of septic mice | inhibit production of cytokines by LPS-stimulated macrophages | significantly improve survival
